Results from PubChem BioAssay (NCI).
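Cells were grown in 96-well plates and exposed to each compound for 48 hours at five concentrations; endpoints were interpolated linearly between bracketing concentrations, or set to the highest concentration if not reached. GI50: concentration for 50% inhibition of growth. TGI marks complete inhibition of growth.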

What was measured:
Experiment in all cases: DTP human tumour cell line panel, 48 h
TK-10 renal = system: TK-10 renal
SF-295 CNS = system: SF-295 CNS
KM12 colon = system: KM12 colon
NCI-H460 lung = system: NCI-H460 lung
UACC-62 melanoma = system: UACC-62 melanoma
DU-145 prostate = system: DU-145 prostate
SNB-19 CNS = system: SNB-19 CNS
RXF 393 renal = system: RXF 393 renal
M14 melanoma = system: M14 melanoma
A549 NSCLC = system: A549 NSCLC
HOP-92 NSCLC = system: HOP-92 NSCLC
COLO 205 colon = system: COLO 205 colon
MDA-MB-435 = system: MDA-MB-435
PC-3 prostate = system: PC-3 prostate
786-0 renal = system: 786-0 renal
HCC-2998 colon = system: HCC-2998 colon
U251 CNS = system: U251 CNS
UACC-257 melanoma = system: UACC-257 melanoma
A498 renal = system: A498 renal
LOX IMVI melanoma = system: LOX IMVI melanoma
SW-620 colon = system: SW-620 colon
SN12C renal = system: SN12C renal
CCRF-CEM leukemia = system: CCRF-CEM leukemia
HCT-116 colon = system: HCT-116 colon
NCI-H522 lung = system: NCI-H522 lung
ACHN renal = system: ACHN renal
T-47D breast = system: T-47D breast
BT-549 breast = system: BT-549 breast
HL-60(TB) leukemia = system: HL-60(TB) leukemia
MOLT-4 leukemia = system: MOLT-4 leukemia
IGROV1 ovarian = system: IGROV1 ovarian
OVCAR-3 ovarian = system: OVCAR-3 ovarian
OVCAR-5 ovarian = system: OVCAR-5 ovarian
SK-MEL-28 melanoma = system: SK-MEL-28 melanoma
SF-539 CNS = system: SF-539 CNS
SK-OV-3 ovarian = system: SK-OV-3 ovarian
NCI-H23 lung = system: NCI-H23 lung
HT29 colon = system: HT29 colon
SNB-75 CNS = system: SNB-75 CNS
HS 578T breast = system: HS 578T breast
K-562 leukemia = system: K-562 leukemia
NCI-H226 lung = system: NCI-H226 lung
SK-MEL-2 melanoma = system: SK-MEL-2 melanoma
SF-268 CNS = system: SF-268 CNS
HOP-62 NSCLC = system: HOP-62 NSCLC
OVCAR-8 ovarian = system: OVCAR-8 ovarian
RPMI-8226 leukemia = system: RPMI-8226 leukemia
MCF7 breast = system: MCF7 breast
SK-MEL-5 melanoma = system: SK-MEL-5 melanoma
HCT-15 colon = system: HCT-15 colon
CAKI-1 renal = system: CAKI-1 renal
MALME-3M melanoma = system: MALME-3M melanoma
SR leukemia = system: SR leukemia
UO-31 renal = system: UO-31 renal
MDA-MB-231 breast = system: MDA-MB-231 breast
OVCAR-4 ovarian = system: OVCAR-4 ovarian
EKVX NSCLC = system: EKVX NSCLC
NCI/ADR-RES ovarian = system: NCI/ADR-RES ovarian

COc1ccc(/C=C(/c2ccccc2)[N+](=O)[O-])cc1
GI50 (TK-10 renal): 1.98 µM
TGI (TK-10 renal): 3.93 µM
GI50 (SF-295 CNS): 2.29 µM
TGI (SF-295 CNS): 5.22 µM
GI50 (KM12 colon): 1.85 µM
TGI (KM12 colon): 3.5 µM
GI50 (NCI-H460 lung): 2.04 µM
TGI (NCI-H460 lung): 4.16 µM
GI50 (UACC-62 melanoma): 1.5 µM
TGI (UACC-62 melanoma): 3.17 µM
GI50 (DU-145 prostate): 1.65 µM
TGI (DU-145 prostate): 3.05 µM
GI50 (SNB-19 CNS): 1.65 µM
TGI (SNB-19 CNS): 3.17 µM
GI50 (RXF 393 renal): 1.35 µM
TGI (RXF 393 renal): 2.78 µM
GI50 (M14 melanoma): 1.42 µM
TGI (M14 melanoma): 2.85 µM
GI50 (A549 NSCLC): 2.13 µM
TGI (A549 NSCLC): 5.12 µM
GI50 (HOP-92 NSCLC): 1.08 µM
TGI (HOP-92 NSCLC): 2.48 µM
GI50 (COLO 205 colon): 1.79 µM
TGI (COLO 205 colon): 4.07 µM
GI50 (MDA-MB-435): 1.3 µM
TGI (MDA-MB-435): 2.69 µM
GI50 (PC-3 prostate): 1.46 µM
TGI (PC-3 prostate): 3.21 µM
GI50 (786-0 renal): 1.58 µM
TGI (786-0 renal): 2.96 µM
GI50 (HCC-2998 colon): 1.75 µM
TGI (HCC-2998 colon): 3.22 µM
GI50 (U251 CNS): 1.61 µM
TGI (U251 CNS): 3.21 µM
GI50 (UACC-257 melanoma): 1.6 µM
TGI (UACC-257 melanoma): 3.4 µM
GI50 (A498 renal): 1.01 µM
TGI (A498 renal): 2.24 µM
GI50 (LOX IMVI melanoma): 1.47 µM
TGI (LOX IMVI melanoma): 2.89 µM
GI50 (SW-620 colon): 1.34 µM
TGI (SW-620 colon): 3.18 µM
GI50 (SN12C renal): 1.36 µM
TGI (SN12C renal): 2.9 µM
GI50 (CCRF-CEM leukemia): 0.415 µM
TGI (CCRF-CEM leukemia): 3.32 µM
GI50 (HCT-116 colon): 1.03 µM
TGI (HCT-116 colon): 2.29 µM
GI50 (NCI-H522 lung): 1.65 µM
TGI (NCI-H522 lung): 4.16 µM
GI50 (ACHN renal): 1.55 µM
TGI (ACHN renal): 2.9 µM
GI50 (T-47D breast): 1.2 µM
TGI (T-47D breast): 4.5 µM
GI50 (BT-549 breast): 1.42 µM
TGI (BT-549 breast): 2.88 µM
GI50 (HL-60(TB) leukemia): 2.35 µM
TGI (HL-60(TB) leukemia): 6.87 µM
GI50 (MOLT-4 leukemia): 2.18 µM
TGI (MOLT-4 leukemia): 6.28 µM
GI50 (IGROV1 ovarian): 1.27 µM
TGI (IGROV1 ovarian): 2.67 µM
GI50 (OVCAR-3 ovarian): 1.36 µM
TGI (OVCAR-3 ovarian): 2.69 µM
GI50 (OVCAR-5 ovarian): 1.62 µM
TGI (OVCAR-5 ovarian): 3.26 µM
GI50 (SK-MEL-28 melanoma): 1.57 µM
TGI (SK-MEL-28 melanoma): 3.19 µM
GI50 (SF-539 CNS): 1.77 µM
TGI (SF-539 CNS): 3.18 µM
GI50 (SK-OV-3 ovarian): 2.59 µM
TGI (SK-OV-3 ovarian): 6.91 µM
GI50 (NCI-H23 lung): 1.74 µM
TGI (NCI-H23 lung): 3.63 µM
GI50 (HT29 colon): 2.04 µM
TGI (HT29 colon): 11.3 µM
GI50 (SNB-75 CNS): 1.16 µM
TGI (SNB-75 CNS): 2.44 µM
GI50 (HS 578T breast): 2.4 µM
TGI (HS 578T breast): 7.7 µM
GI50 (K-562 leukemia): 0.393 µM
TGI (K-562 leukemia): > 100 µM
GI50 (NCI-H226 lung): 1.95 µM
TGI (NCI-H226 lung): 4.43 µM
GI50 (SK-MEL-2 melanoma): 1.92 µM
TGI (SK-MEL-2 melanoma): 4.44 µM
GI50 (SF-268 CNS): 1.82 µM
TGI (SF-268 CNS): 3.77 µM
GI50 (HOP-62 NSCLC): 1.82 µM
TGI (HOP-62 NSCLC): 3.79 µM
GI50 (OVCAR-8 ovarian): 2.08 µM
TGI (OVCAR-8 ovarian): 6.3 µM
GI50 (RPMI-8226 leukemia): 0.486 µM
TGI (RPMI-8226 leukemia): 3.01 µM
GI50 (MCF7 breast): 0.567 µM
TGI (MCF7 breast): 2.68 µM
GI50 (SK-MEL-5 melanoma): 1.82 µM
TGI (SK-MEL-5 melanoma): 3.29 µM
GI50 (HCT-15 colon): 0.446 µM
TGI (HCT-15 colon): 1.86 µM
GI50 (CAKI-1 renal): 1.55 µM
TGI (CAKI-1 renal): 3.28 µM
GI50 (MALME-3M melanoma): 1.42 µM
TGI (MALME-3M melanoma): 2.94 µM
GI50 (SR leukemia): 0.464 µM
TGI (SR leukemia): 6.95 µM
GI50 (UO-31 renal): 1.13 µM
TGI (UO-31 renal): 2.35 µM
GI50 (MDA-MB-231 breast): 1.59 µM
TGI (MDA-MB-231 breast): 3.09 µM
GI50 (OVCAR-4 ovarian): 1.69 µM
TGI (OVCAR-4 ovarian): 3.15 µM
GI50 (EKVX NSCLC): 1.73 µM
TGI (EKVX NSCLC): 3.52 µM
GI50 (NCI/ADR-RES ovarian): 1.75 µM
TGI (NCI/ADR-RES ovarian): 4.66 µM
